Measured values: ChEMBL document CHEMBL1126058, “Development of potent and selective CCK-A receptor agonists from Boc-CCK-4: tetrapeptides containing Lys(N epsilon)-amide residues” (J Med Chem, 1992)
Where a SMILES comes first, the peptide text is derived from it. [ ]: non-standard residue; d: D form. The star is where a group is joined. Hydrocinnamoyl(4-OSO3H) = O=C(CCc1ccc(OS(=O)(=O)O)cc1)*; Propanoyl(3-(4-F-phenyl)) = O=C(CCc1ccc(F)cc1)*; Propanoyl(3-(4-MeO-Ph)) = COc1ccc(CCC(=O)*)cc1; Propanoyl(3-(4-Cl-Ph)) = O=C(CCc1ccc(Cl)cc1)*; Hydrocinnamoyl(4-Me) = Cc1ccc(CCC(=O)*)cc1; Quinoline3carbonyl = O=C(c1cnc2ccccc2c1)*; X13 = O=C(c1ccc2cc(OS(=O)(=O)O)ccc2c1)*; X6 = O=C(/C=C\c1ccc([N+](=O)[O-])cc1)*; Propanoyl(3-cHex) = O=C(CCC1CCCCC1)*; X15 = O=C(/C=C\c1ccc(C(F)(F)F)cc1)*; X20 = CC(=O)Oc1ccc2cc(C(=O)*)ccc2c1; Hydrocinnamoyl = O=C(CCc1ccccc1)*; X17 = COc1ccc(/C=C\C(=O)*)c(OC)c1; NMeF = CN[C@@H](Cc1ccccc1)C(=O)O; X10 = O=C(/C=C\c1ccc(Cl)cc1Cl)*; X14 = O=C(c1cc2cc(O)ccc2[nH]1)*; X2 = O=C(c1cc2cc(Cl)ccc2[nH]1)*; X7 = CN(C)c1ccc(/C=C\C(=O)*)cc1; X8 = COc1ccc2[nH]c(C(=O)*)cc2c1; X1 = O=C(/C=C\c1ccc(O)c(O)c1)*; X12 = O=C(c1cnc2cccc(O)c2c1)*; X21 = O=C(/C=C\c1ccc(Br)cc1)*; X11 = O=C(/C=C\c1ccc(O)cc1)*; X18 = O=C(c1cc2ccccc2[nH]1)*; X3 = O=C(/C=C/c1ccc(O)cc1)*; X4 = O=C(/C=C\c1ccc(F)cc1)*; X16 = O=C(/C=C\c1ccccc1O)*; X19 = O=C(/C=C\c1ccccc1)*; X5 = O=C(CCc1cccc(O)c1)*; X9 = O=C(/C=C/c1cccs1)*; Boc = CC(C)(C)OC(=O)*

Legend:
[1] = molecular target: T1, Cholecystokinin receptor type A (Cavia porcellus, UniProt Q63931); experiment: Inhibition of specific binding of [125I]BH-CCK-8 in guinea pig pancreas.
T1 sequence (Q63931 whole entry): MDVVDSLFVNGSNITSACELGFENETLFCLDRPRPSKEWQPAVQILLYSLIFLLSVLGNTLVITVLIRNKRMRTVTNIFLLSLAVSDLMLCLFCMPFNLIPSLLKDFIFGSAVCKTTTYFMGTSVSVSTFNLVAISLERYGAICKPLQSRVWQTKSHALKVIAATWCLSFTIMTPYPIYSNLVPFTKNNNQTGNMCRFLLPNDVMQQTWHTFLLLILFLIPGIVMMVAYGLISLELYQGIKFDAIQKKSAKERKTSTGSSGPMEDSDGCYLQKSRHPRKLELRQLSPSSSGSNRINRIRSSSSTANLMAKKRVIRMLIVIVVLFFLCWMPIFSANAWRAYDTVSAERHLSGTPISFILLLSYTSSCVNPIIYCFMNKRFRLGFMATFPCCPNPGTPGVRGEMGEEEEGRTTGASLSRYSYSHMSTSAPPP

Cavia porcellus [2] = species: Cavia porcellus; experiment: Hydrolysis of phosphoinositide (PI) relative to maximal response elicited by CCK-8 in guinea pig pancreas.; assay type: functional
Cavia porcellus [3] = species: Cavia porcellus; experiment: Stimulation of amylase release in guinea pig pancreas; assay type: functional

Structure (SMILES)	IC50 [1] [µM]	Max (Cavia porcellus [2]) [%]	EC50 (Cavia porcellus [3]) [µM]
Cc1ccc(CCC(=O)NCCCC[C@H](NC(=O)[C@H](Cc2c[nH]c3ccccc23)NC(=O)OC(C)(C)C)C(=O)N[C@@H](CC(=O)O)C(=O)N[C@@H](Cc2ccccc2)C(N)=O)cc1 (Boc-WK(Hydrocinnamoyl(4-Me))DF-NH2)	0.29	62	0.24
CC(C)(C)OC(=O)N[C@@H](Cc1c[nH]c2ccccc12)C(=O)N[C@@H](CCCCNC(=O)CCc1ccc(OS(=O)(=O)O)cc1)C(=O)N[C@@H](CC(=O)O)C(=O)N[C@@H](Cc1ccccc1)C(N)=O (Boc-WK(Hydrocinnamoyl(4-OSO3H))DF-NH2)	0.076	68	0.098
CC(C)(C)OC(=O)N[C@@H](Cc1c[nH]c2ccccc12)C(=O)N[C@@H](CCCCNC(=O)CCc1ccccc1)C(=O)N[C@@H](CC(=O)O)C(=O)N[C@@H](Cc1ccccc1)C(N)=O (Boc-WK(Hydrocinnamoyl)DF-NH2)	0.31	49	0.85
CC(C)(C)OC(=O)N[C@@H](Cc1c[nH]c2ccccc12)C(=O)N[C@@H](CCCCNC(=O)CCc1ccc(Cl)cc1)C(=O)N[C@@H](CC(=O)O)C(=O)N[C@@H](Cc1ccccc1)C(N)=O (Boc-WK(Propanoyl(3-(4-Cl-Ph)))DF-NH2)	0.41	51	0.17
CC(C)(C)OC(=O)N[C@@H](Cc1c[nH]c2ccccc12)C(=O)N[C@@H](CCCCNC(=O)CCc1ccc(F)cc1)C(=O)N[C@@H](CC(=O)O)C(=O)N[C@@H](Cc1ccccc1)C(N)=O (Boc-WK(Propanoyl(3-(4-F-phenyl)))DF-NH2)	0.25	68	0.45
COc1ccc(CCC(=O)NCCCC[C@H](NC(=O)[C@H](Cc2c[nH]c3ccccc23)NC(=O)OC(C)(C)C)C(=O)N[C@@H](CC(=O)O)C(=O)N[C@@H](Cc2ccccc2)C(N)=O)cc1 (Boc-WK(Propanoyl(3-(4-MeO-Ph)))DF-NH2)	0.14	70	0.074
CC(C)(C)OC(=O)N[C@@H](Cc1c[nH]c2ccccc12)C(=O)N[C@@H](CCCCNC(=O)CCC1CCCCC1)C(=O)N[C@@H](CC(=O)O)C(=O)N[C@@H](Cc1ccccc1)C(N)=O (Boc-WK(Propanoyl(3-cHex))DF-NH2)	0.31	40	30
CC(C)(C)OC(=O)N[C@@H](Cc1c[nH]c2ccccc12)C(=O)N[C@@H](CCCCNC(=O)c1cnc2ccccc2c1)C(=O)N[C@@H](CC(=O)O)C(=O)N[C@@H](Cc1ccccc1)C(N)=O (Boc-WK(Quinoline3carbonyl)DF-NH2)	0.033	46	0.039
CC(C)(C)OC(=O)N[C@@H](Cc1c[nH]c2ccccc12)C(=O)N[C@@H](CCCCNC(=O)/C=C\c1ccc(O)c(O)c1)C(=O)N[C@@H](CC(=O)O)C(=O)N[C@@H](Cc1ccccc1)C(N)=O (Boc-WK(X1)DF-NH2)	0.033	66	0.045
CC(C)(C)OC(=O)N[C@@H](Cc1c[nH]c2ccccc12)C(=O)N[C@@H](CCCCNC(=O)c1cc2cc(Cl)ccc2[nH]1)C(=O)N[C@@H](CC(=O)O)C(=O)N[C@@H](Cc1ccccc1)C(N)=O (Boc-WK(X2)DF-NH2)	0.11	27	0.062
CN(C(=O)[C@H](CC(=O)O)NC(=O)[C@H](CCCCNC(=O)/C=C/c1ccc(O)cc1)NC(=O)[C@H](Cc1c[nH]c2ccccc12)NC(=O)OC(C)(C)C)[C@@H](Cc1ccccc1)C(N)=O (Boc-WK(X3)D[NMeF]-NH2)	[…]	76	0.003
CC(C)(C)OC(=O)N[C@@H](Cc1c[nH]c2ccccc12)C(=O)N[C@@H](CCCCNC(=O)/C=C\c1ccc(F)cc1)C(=O)N[C@@H](CC(=O)O)C(=O)N[C@@H](Cc1ccccc1)C(N)=O (Boc-WK(X4)DF-NH2)	0.065	74	0.016
CC(C)(C)OC(=O)N[C@@H](Cc1c[nH]c2ccccc12)C(=O)N[C@@H](CCCCNC(=O)CCc1cccc(O)c1)C(=O)N[C@@H](CC(=O)O)C(=O)N[C@@H](Cc1ccccc1)C(N)=O (Boc-WK(X5)DF-NH2)	0.4	46	0.16
CC(C)(C)OC(=O)N[C@@H](Cc1c[nH]c2ccccc12)C(=O)N[C@@H](CCCCNC(=O)/C=C\c1ccc([N+](=O)[O-])cc1)C(=O)N[C@@H](CC(=O)O)C(=O)N[C@@H](Cc1ccccc1)C(N)=O (Boc-WK(X6)DF-NH2)	0.057	64	0.027
CN(C)c1ccc(/C=C\C(=O)NCCCC[C@H](NC(=O)[C@H](Cc2c[nH]c3ccccc23)NC(=O)OC(C)(C)C)C(=O)N[C@@H](CC(=O)O)C(=O)N[C@@H](Cc2ccccc2)C(N)=O)cc1 (Boc-WK(X7)DF-NH2)	0.12	49	0.017
COc1ccc2[nH]c(C(=O)NCCCC[C@H](NC(=O)[C@H](Cc3c[nH]c4ccccc34)NC(=O)OC(C)(C)C)C(=O)N[C@@H](CC(=O)O)C(=O)N[C@@H](Cc3ccccc3)C(N)=O)cc2c1 (Boc-WK(X8)DF-NH2)	0.052	21	0.016
CC(C)(C)OC(=O)N[C@@H](Cc1c[nH]c2ccccc12)C(=O)N[C@@H](CCCCNC(=O)/C=C/c1cccs1)C(=O)N[C@@H](CC(=O)O)C(=O)N[C@@H](Cc1ccccc1)C(N)=O (Boc-WK(X9)DF-NH2)	0.05	66	0.02
CC(C)(C)OC(=O)N[C@@H](Cc1c[nH]c2ccccc12)C(=O)N[C@@H](CCCCNC(=O)/C=C\c1ccc(Cl)cc1Cl)C(=O)N[C@@H](CC(=O)O)C(=O)N[C@@H](Cc1ccccc1)C(N)=O (Boc-WK(X10)DF-NH2)	0.13	86	0.09
CC(C)(C)OC(=O)N[C@@H](Cc1c[nH]c2ccccc12)C(=O)N[C@@H](CCCCNC(=O)/C=C\c1ccc(O)cc1)C(=O)N[C@@H](CC(=O)O)C(=O)N[C@@H](Cc1ccccc1)C(N)=O (Boc-WK(X11)DF-NH2)	0.016	76	0.0039
CC(C)(C)OC(=O)N[C@@H](Cc1c[nH]c2ccccc12)C(=O)N[C@@H](CCCCNC(=O)c1cnc2cccc(O)c2c1)C(=O)N[C@@H](CC(=O)O)C(=O)N[C@@H](Cc1ccccc1)C(N)=O (Boc-WK(X12)DF-NH2)	0.0077	45	0.0023
CC(C)(C)OC(=O)N[C@@H](Cc1c[nH]c2ccccc12)C(=O)N[C@@H](CCCCNC(=O)c1ccc2cc(OS(=O)(=O)O)ccc2c1)C(=O)N[C@@H](CC(=O)O)C(=O)N[C@@H](Cc1ccccc1)C(N)=O (Boc-WK(X13)DF-NH2)	0.0029	49	0.0035
CC(C)(C)OC(=O)N[C@@H](Cc1c[nH]c2ccccc12)C(=O)N[C@@H](CCCCNC(=O)c1cc2cc(O)ccc2[nH]1)C(=O)N[C@@H](CC(=O)O)C(=O)N[C@@H](Cc1ccccc1)C(N)=O (Boc-WK(X14)DF-NH2)	0.014	23	0.068
CC(C)(C)OC(=O)N[C@@H](Cc1c[nH]c2ccccc12)C(=O)N[C@@H](CCCCNC(=O)/C=C\c1ccc(C(F)(F)F)cc1)C(=O)N[C@@H](CC(=O)O)C(=O)N[C@@H](Cc1ccccc1)C(N)=O (Boc-WK(X15)DF-NH2)	0.22	60	0.055
CC(C)(C)OC(=O)N[C@@H](Cc1c[nH]c2ccccc12)C(=O)N[C@@H](CCCCNC(=O)/C=C\c1ccccc1O)C(=O)N[C@@H](CC(=O)O)C(=O)N[C@@H](Cc1ccccc1)C(N)=O (Boc-WK(X16)DF-NH2)	0.11	54	0.21
COc1ccc(/C=C\C(=O)NCCCC[C@H](NC(=O)[C@H](Cc2c[nH]c3ccccc23)NC(=O)OC(C)(C)C)C(=O)N[C@@H](CC(=O)O)C(=O)N[C@@H](Cc2ccccc2)C(N)=O)c(OC)c1 (Boc-WK(X17)DF-NH2)	0.038	82	0.014
CC(C)(C)OC(=O)N[C@@H](Cc1c[nH]c2ccccc12)C(=O)N[C@@H](CCCCNC(=O)c1cc2ccccc2[nH]1)C(=O)N[C@@H](CC(=O)O)C(=O)N[C@@H](Cc1ccccc1)C(N)=O (Boc-WK(X18)DF-NH2)	0.039	18	0.02
CC(C)(C)OC(=O)N[C@@H](Cc1c[nH]c2ccccc12)C(=O)N[C@@H](CCCCNC(=O)/C=C\c1ccccc1)C(=O)N[C@@H](CC(=O)O)C(=O)N[C@@H](Cc1ccccc1)C(N)=O (Boc-WK(X19)DF-NH2)	0.055	52	0.03
CC(=O)Oc1ccc2cc(C(=O)NCCCC[C@H](NC(=O)[C@H](Cc3c[nH]c4ccccc34)NC(=O)OC(C)(C)C)C(=O)N[C@@H](CC(=O)O)C(=O)N[C@@H](Cc3ccccc3)C(N)=O)ccc2c1 (Boc-WK(X20)DF-NH2)	0.008	49	0.011
CC(=O)Oc1ccc2cc(C(=O)NCCCC[C@H](NC(=O)[C@H](Cc3c[nH]c4ccccc34)NC(=O)OC(C)(C)C)C(=O)N[C@@H](CC(=O)O)C(=O)N(C)[C@@H](Cc3ccccc3)C(N)=O)ccc2c1 (Boc-WK(X20)D[NMeF]-NH2)	0.0034	58	0.029
CC(C)(C)OC(=O)N[C@@H](Cc1c[nH]c2ccccc12)C(=O)N[C@@H](CCCCNC(=O)/C=C\c1ccc(Br)cc1)C(=O)N[C@@H](CC(=O)O)C(=O)N[C@@H](Cc1ccccc1)C(N)=O (Boc-WK(X21)DF-NH2)	0.14	72	0.038
